Converted amounts (≈) assume the structure as drawn. “Also recorded” adds a separate entry of the source.
Experiments:
Assay type in all cases: physicochemical
[1] = Stability of AST-3424 solutions (about 90 mg/mL) in different solvents, high-temperature destruction 40 °C, 3 days
Experimental: The AST-3424 solutions (contents were about 90 mg/mL) dissolved in different solvents were subjected to high-temperature destruction (40 °C, 3 days). The purity was detected. The destructed solutions were compared with samples not subjected to the destruction (40 °C, 3 days). The stability of AST-3424 in different solvents was examined.
Purity was determined by using an HPLC method:
Mobile phase: • A: 10 mmol/L ammonium acetate solution obtained by dissolving ammonium acetate in a mixed solvent of 95% water and 5% acetonitrile by volume ratio; and • B: 8 mmol/L ammonium acetate solution obtained by dissolving ammonium acetate in a mixed solvent of 95% acetonitrile and 5% water by volume ratio; and
A gradient elution was performed.

[2] = as above; details: dissolved in propylene glycol, compared with other solvents
[3] = Long-term stability study at −20±5 °C and 5±3 °C away from light (HDPE bottle, LDPE bag, aluminum foil bag); details: pure API, current limited stability data
Description: (§1) The samples used for the stability study were inner-packaged in an HDPE bottle with a screw cap and outer-packaged in an LDPE bag with a pull button placed in a heat-sealing aluminum foil bag.
(§2) The water content (mass percentage), content, purity (chemical purity) and enantiomeric excess (e.e %) values were detected at 0, 1, 2, 3, 6, 9, 12, 18, 24, 36 and 42 months, respectively. The samples of batches 024101, 034101 and 044101 were used in the experiments.

[4] = Choice of solvent during distillation in the preparation of AST-3424
Description: In the preparation of the AST-3424, in order to remove the solvent, water, etc., used in the preparation and separation processes by distillation as much as possible, the applicant mixes the oily AST-3424 product separated and purified with various common solvents (ethyl acetate, ethanol, methanol, etc.) and performs distillation under reduced pressure after the mixture is heated at a lower temperature. […] Therefore, ethanol is ultimately used through initial confirmation.

[5] = Solubility test of AST-3424 in different solvents at 25 °C
Experimental: A proper amount of AST-3424 (hereinafter referred to as active pharmaceutical ingredient or API) was taken and placed into a proper container, a solvent was gradually added thereto, the mixture was uniformly shaken, the process of the solution changing from turbidity (excessive oil drops of AST-3424 exist) to clarification (AST-3424 is completely dissolved) was observed, the volume of the solvent for clarifying the mixed solution of AST-3424 was recorded, and the solubility was calculated.
In addition, water was further used for the experiment.

[6] = Accelerated stability experiment at 25±2 °C and 60±5% RH away from light; details: 25 °C, after 2 months
Description: as §1, §2

[7] = Observation of viscosity of AST-3424 (FIG. 3); details: neat AST-3424, FIG. 3
Description: Therefore, it is inconvenient to transfer and sub-package it, and solvents are needed to reduce the viscosity thereof.

[8] = absolute ethanol, 40 °C, 3 days
[9] = propylene glycol, 40 °C, 3 days

With `C[C@H](OP(=O)(N1CC1)N1CC1)c1ccc([N+](=O)[O-])c(Oc2cccc(C(=O)N(C)C)c2)c1` [AST-3424, (S)-1-(3-(3-N,N-dimethylaminocarbonyl)phenoxy-4-nitrophenyl)-1-ethyl-N,N′bis(ethylene)phosphoramidate] the Chemical purity ([1]; 0 day (not subjected to destruction)) was 99.3%, the “Stability in solvent” value ([1]; absolute ethanol) was “stable; also recorded: good solubility and stability” and the Chemical purity [1, 8] was 98.8%. The “Content of AST-3424” value [1, 8] was 89.5 mg/mL, the “Stability in solvent” value ([1]; acetonitrile) was “stable” and the Chemical purity ([1]; acetonitrile, 40 °C, 3 days) was 99.3%. For the same molecule, the “Content of AST-3424” value ([1]; acetonitrile, 40 °C, 3 days) was 91.0 mg/mL, the “Stability in solvent” value ([1]; ethyl acetate) was “stable” and the Chemical purity ([1]; ethyl acetate, 40 °C, 3 days) was 96.6%. The “Content of AST-3424” value ([1]; ethyl acetate, 40 °C, 3 days) was 96.1 mg/mL, the “Stability in solvent” value ([1]; propylene glycol) was “stable; also recorded: good solubility and stability” and the Chemical purity [1, 9] was 96.8%. For the same molecule, the “Content of AST-3424” value [1, 9] was 83.5 mg/mL, the “Stability in solvent” value ([1]; water) was “poor solubility and stability” and the Chemical purity ([1]; water, 40 °C, 3 days) was 75.4%. For the same molecule, the “Content of AST-3424” value ([1]; water, 40 °C, 3 days) was 89.2 mg/mL, the “Viscosity” value [2] was “obviously higher viscosity; also recorded: high viscosity” and the “Stability compared with AST-3424 ethanol solution” value [3] was “better than that of the AST-3424 ethanol solution”. The “solubility” value ([4]; ethanol) was “almost infinitely dissolve”, the “solubility” value ([4]; ethyl acetate) was “not high enough” and the “solubility” value ([4]; methanol) was “good solubility”. For the same molecule, the “Phenomenon (solubility in words)” value ([5]; ethanol, table cell continues '(mutually soluble)') was “good solubilities; also recorded: good solubility and stability; also recorded: Very soluble”, the “Phenomenon (solubility in words)” value ([5]; ethyl acetate, table cell continues '(mutually soluble)') was “Very soluble” and the solubility ([5]; organic solvent or mixture, ethanol) was > 1000 mg/mL. For the same molecule, the solubility ([5]; organic solvent or mixture, ethyl acetate) was > 1000 mg/mL, the solubility ([5]; organic solvent or mixture, propylene glycol) was > 100 mg/mL and the “Phenomenon (solubility in words)” value ([5]; propylene glycol, table cell continues 'soluble') was “good solubilities; also recorded: good solubility and stability; also recorded: Freely”. For the same molecule, the solubility ([5]; water) was ~20 mg/mL (≈ 43.4 mM), the “Phenomenon (solubility in words)” value ([5]; water, table cell continues 'soluble') was “sparingly soluble; also recorded: poor solubility and stability” and the “Degradation” value [6] was “degraded rapidly”. For the same molecule, the Purity [6] was “less than 98%” and the “Physical state / viscosity” value [7] was “viscous oily substance”.
